Assay: Dissolution test USP 31 NF 26 section 711, apparatus 1 baskets at 100 rpm
Type: physicochemical
Method: The release enhancing agent, CaCl2, was added to the capsule blend of the first sample while a second formulation was prepared as a control without the use of the release enhancing agent. Six capsules from each formulation were then tested for dissolution.
The test used followed USP 31 NF 26 section 711 using apparatus 1 baskets at 100 rpm (no enzymes). The media selected was simulated gastric (0.1N HCl) at a volume of 900 ml. One capsule was added to each dissolution vessel. At the 60 minute time point the baskets were removed without touching the contents and subsequently placed in dissolution vessels containing 900 ml of simulated intestinal fluid (pH of 6.8). Aliquots were drawn at 15, 30, 45, and 120 minutes. An equivalent amount of media was replaced in the dissolution vessel to account for the volume of the sample removed. The aliquots were filtered and subsequently analyzed using HPLC equipped with a UV detector.
The process that was used to create the resinate, filling the capsules and carrying out the dissolution test in this example was the same as described in Example 1 except that 60 mg of CaCl2 was used instead of 40 mg as in Example 1.

Compound: [Ca+2].[Cl-].[Cl-] [CaCl2]
- effect of adding the release enhancing agent on release rate of dextromethorphan vs control formulation (Example 1, 40 mg CaCl2 in capsule with dextromethorphan IRP69 resinate): increased the release rate of dextromethorphan
- effect of adding the release enhancing agent on release rate of dextromethorphan vs control formulation (Example 2, 60 mg CaCl2 in capsule with dextromethorphan IRP69 resinate): increased the release rate of dextromethorphan

Source: patent publication US20100273822A1, “Immediate release compositions and methods for delivering drug formulations using strong acid ion exchange resins” (priority 2009, published 2010)
